In one test the test system is Adrenergic α2. Briefly: Radioligand binding assay, Adrenergic α2. Conditions: Wistar rat cerebral cortex; 0.7 nM 3H Rauwolscine; significance criteria ≦50% of max stimulation or inhibition. The procedure:
(§1) In order to test the selectivity of compounds, various radioligand binding assays were performed using numerous non-Edg receptor targets as listed below.
(§2) A radioligand binding assay was performed using adrenergic α1 according to the method of Greengrass and Bremner 1979, Eur. J. Pharmacol. 55:323-326. A radioligand binding assay was performed using adrenergic α2 according to the method of Boyajian and Leslie, 1987, J. Pharmacol. Exp. Ther. 241:1092-1098. A radioligand binding assay was performed using adrenergic β according to the method of Feve et al., 1994, Proc. Natl. Acad. Sci. USA 91:5677-5681. A radioligand binding assay was performed using angiotensin AT2 according to the method of Whitebread et al., 1991, Biochem. Biophys. Res. Comm. 181:1365-1371. A radioligand binding assay was performed using calcium channel Type L, dihydropyridine according to the method of Ehlert et al., 1982, Life Sci. 30:2191-2202. A radioligand binding assay was performed using dopamine D2L according to the method of Bunzo et al., 1988, Nature 336:783-787. A radioligand binding assay was performed using endothelin ETA according to the method of Mihara et al., 1994, J. Pharmacol. Exp Ther. 268:1122-1127. A radioligand binding assay was performed using histamine H1 Central according to the method of Hill et al., 1978, J. Neurochem. 31:997-1004. […]
(§3) Quantitation Method: Radioligand Binding […]

In another test the test system is Adrenergic β. Briefly: Radioligand binding assay, Adrenergic β. Conditions: Wistar rat brain; 0.25 nM 3H Dihydroaplenolol; significance criteria ≦50% of max stimulation or inhibition. As for the experimental part:
as §1, §2, §3

In test [1] the test system is Muscarinic non-selective, Central. It is filed as binding. Conditions: Wistar rat cerebral cortex; 0.29 nM 3H Quinuclidinyl benzilate; significance criteria ≦50% of max stimulation or inhibition.
The target in the next test is T1, Histamine H1, Central (Cavia porcellus, UniProt P31389).
T1 construct: from tissue; host or cells: Guinea pig cerebellum
Briefly: Radioligand binding assay, Histamine H1, Central. Conditions: Guinea pig cerebellum; 1.75 nM 3H Pyrilamine; significance criteria ≦50% of max stimulation or inhibition. The procedure: as §1, §2, §3

The next test addresses T2, Angiotensin AT2 (Homo sapiens, UniProt P50052).
T2 construct: expressed in transfected cells; host or cells: Hela cells
T2 sequence (P50052 1-363): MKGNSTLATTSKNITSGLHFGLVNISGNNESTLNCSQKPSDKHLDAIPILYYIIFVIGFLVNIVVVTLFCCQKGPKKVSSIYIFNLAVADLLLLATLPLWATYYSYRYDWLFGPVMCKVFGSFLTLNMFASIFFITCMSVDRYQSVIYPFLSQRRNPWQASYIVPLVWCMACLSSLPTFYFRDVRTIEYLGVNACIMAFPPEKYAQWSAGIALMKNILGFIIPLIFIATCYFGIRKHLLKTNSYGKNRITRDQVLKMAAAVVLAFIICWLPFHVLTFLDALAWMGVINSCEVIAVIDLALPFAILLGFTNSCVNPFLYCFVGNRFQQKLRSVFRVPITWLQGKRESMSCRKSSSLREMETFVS
Briefly: Radioligand binding assay, Angiotensin AT2. Conditions: Human recombinant Hela cells; 0.025 nM 125I CGP-42112A; significance criteria ≦50% of max stimulation or inhibition. The procedure:
as §1, §2, §3

The target in another test is T3, Edg-7 (Homo sapiens, UniProt Q9UBY5).
T3 construct: expressed in transfected cells; host or cells: HTC (rat hepatoma) cells
T3 sequence (Q9UBY5 1-353): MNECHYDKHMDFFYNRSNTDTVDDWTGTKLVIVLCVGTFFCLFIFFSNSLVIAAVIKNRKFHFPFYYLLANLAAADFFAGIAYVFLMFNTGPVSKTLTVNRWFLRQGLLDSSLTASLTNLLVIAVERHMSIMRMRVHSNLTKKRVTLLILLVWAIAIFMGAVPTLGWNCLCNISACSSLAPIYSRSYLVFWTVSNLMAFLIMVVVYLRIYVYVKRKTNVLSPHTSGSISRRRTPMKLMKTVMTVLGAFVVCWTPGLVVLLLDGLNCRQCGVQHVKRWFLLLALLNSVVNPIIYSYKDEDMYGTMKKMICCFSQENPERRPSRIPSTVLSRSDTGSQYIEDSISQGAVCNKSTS
Briefly: LPA-stimulated calcium increases in HTC cells expressing Edg-7. In kind it is cell-based. Conditions: concentrations as high as 10 μM.

The test system of test [2] is Serotonin 5-HT1, non-selective. Briefly: Radioligand binding assay, Serotonin 5-HT1, non-selective. Conditions: Wistar rat cerebral cortex; 2 nM 3H Serotonin (5-HT) Trifluoroacetate; significance criteria ≦50% of max stimulation or inhibition. The procedure:
as §1, §2, §3

From patent US20040167181A1, “Methods of treating conditions associated with an Edg-3 receptor” (priority 2003, published 2004) come the findings set out here.

T1 sequence (P31389 whole entry): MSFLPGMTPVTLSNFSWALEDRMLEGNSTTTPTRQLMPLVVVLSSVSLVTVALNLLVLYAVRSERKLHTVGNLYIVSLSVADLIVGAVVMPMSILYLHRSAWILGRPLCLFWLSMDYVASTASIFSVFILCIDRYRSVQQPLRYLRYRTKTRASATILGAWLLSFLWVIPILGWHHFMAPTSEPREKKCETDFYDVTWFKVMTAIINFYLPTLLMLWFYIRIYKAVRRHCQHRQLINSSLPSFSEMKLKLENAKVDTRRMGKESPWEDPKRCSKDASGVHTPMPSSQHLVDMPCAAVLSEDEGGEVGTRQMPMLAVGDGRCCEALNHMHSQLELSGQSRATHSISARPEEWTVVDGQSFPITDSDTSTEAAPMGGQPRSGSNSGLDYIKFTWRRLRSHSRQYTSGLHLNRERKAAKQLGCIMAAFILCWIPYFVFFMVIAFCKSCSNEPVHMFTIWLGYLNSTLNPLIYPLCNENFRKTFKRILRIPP

With `Cc1c(-c2ccccc2)nc2ccccc2c1C(=O)NCc1ccc(F)cc1` [Compound 101], the “activity in radioligand binding assay” value in the test on Adrenergic α2 is given as “no significant activity”; in the test on Adrenergic β, “no significant activity”; in test [1], “no significant activity”; on Histamine H1, Central it was “no significant activity”; at Angiotensin AT2, “no significant activity”; in test [2], “no significant activity”. Besides, at Edg-7, the “inhibition of LPA-stimulated calcium increases” value was “did not inhibit”.
